Assay [1] relates to IL-1β release upon NLRP3 activation in peripheral blood mononuclear cells (PBMC). The assay can be described thus: PBMC IC50 determination assay (IL-1β release, LPS priming + ATP stimulation, HTRF). Format: cell-based. The conditions noted are these: PBMC from buffy coats; LPS 1 μg/ml 3 h, compound 30 min, ATP 5 mM 1 h; IL-1β by HTRF. In short, it runs like this: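 Buffy-coat PBMC were primed with LPS (1 μg/ml) for 3 h, given compound for 30 min, then stimulated with 5 mM ATP for 1 h. IL-1β released into the medium was quantified by HTRF, reading 655 and 620 nm.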
A general note: In TR-FRET formats the signal depends on donor and acceptor labels being close together.

Assay [2] deals with IL-1β release upon NLRP3 activation in human whole blood. The experiment in a line: Whole blood (WB) assay (IL-1β release, LPS priming + ATP stimulation, HTRF). Format: cell-based. The conditions noted are these: heparin, diluted 9:5 with media, LPS 1 μg/ml 3 h, compound 30 min, ATP 5 mM 1 h, IL-1β by HTRF. In short, it runs like this: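 Heparinised human whole blood, diluted 9:5 in medium, was primed with LPS (1 μg/ml final) for 3 h. Compound was then added for 30 min, followed by ATP (5 mM final) for 1 h. Secreted IL-1β was measured in the media by HTRF (655/620 nm).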

Where only a bound is given, the exact number is not on record here.

By IC50 is commonly meant the point on the concentration scale where inhibition reaches its midpoint.

As to `Cc1sc2c(c1NC(=O)NS(=O)(=O)N(c1cnn(C)c1)[C@H]1CCCN(C)C1)CCC2` [Compound 116, 1-[(1-Methyl-1H-pyrazol-4-yl)[(3S)-1-methylpiperidin-3-yl]sulfamoyl]-3-{2-methyl-4H,5H,6H-cyclopenta[b]thiophen-3-yl}urea], the half-maximal inhibitory concentration (IC50) in assay [1] is < 100 nM; in assay [2] it was < 1000 nM.
In the same order, the values of `Cc1sc(C(F)(F)F)cc1NC(=O)NS(=O)(=O)N(c1cnn(C)c1)C1CCCN(C)C1` (centres unmarked) [Compound 117, 1-[(1-Methyl-1H-pyrazol-4-yl)(1-methylpiperidin-3-yl)sulfamoyl]-3-[2-methyl-5-(trifluoromethyl)thiophen-3-yl]urea] are 100 to 500 nM and < 1000 nM.
In the same order, the values of `Cc1sc2c(c1NC(=O)NS(=O)(=O)N(c1cnn(C3CC3)c1)C1CCCN(C)C1)CCC2` (centres unmarked) [Compound 118, 1-[(1-Cyclopropyl-1H-pyrazol-4-yl)(1-methylpiperidin-3-yl)sulfamoyl]-3-{2-methyl-4H,5H,6H-cyclopenta[b]thiophen-3-yl}urea] are < 100 nM and < 1000 nM.
For the compound `Cc1sc2c(c1NC(=O)NS(=O)(=O)N(c1cnn(C)c1F)C1CCCN(C)C1)CCC2` (centres unmarked) [Compound 119, 1-[(5-Fluoro-1-methyl-1H-pyrazol-4-yl)(1-methylpiperidin-3-yl)sulfamoyl]-3-{2-methyl-4H,5H,6H-cyclopenta[b]thiophen-3-yl}urea], the concentration for half-maximal inhibition (IC50) was < 100 nM in assay [1] and < 1000 nM in assay [2].
For `Cc1sc2c(c1NC(=O)NS(=O)(=O)N(c1cnn(C)c1F)C1CCN(C)CC1)CCC2` [Compound 120, 1-[(5-Fluoro-1-methyl-1H-pyrazol-4-yl)(1-methylpiperidin-4-yl)sulfamoyl]-3-{2-methyl-4H,5H,6H-cyclopenta[b]thiophen-3-yl}urea], the IC50 in assay [1] is < 100 nM; in assay [2] it was 1000 to 3000 nM.
Consider `CC(C)c1cc(NC(=O)NS(=O)(=O)N(c2cnn(C)c2)C2CCCN(C)C2)c(C(F)(F)F)s1` (centres unmarked) [Compound 121, 1-[(1-Methyl-1H-pyrazol-4-yl)(1-methylpiperidin-3-yl)sulfamoyl]-3-[5-(propan-2-yl)-2-(trifluoromethyl)thiophen-3-yl]urea], for which the figures for the IC50 in assay [1] and in assay [2] were 100 to 500 nM and 3000 to 10000 nM, respectively.
The matching figures for `CN1CCCC(N(c2cnn(C)c2)S(=O)(=O)NC(=O)Nc2c(C(C)(C)C)sc3c2CCC3)C1` (centres unmarked) [Compound 122, 3-{2-Tert-butyl-4H,5H,6H-cyclopenta[b]thiophen-3-yl}-1-[(1-methyl-1H-pyrazol-4-yl)(1-methylpiperidin-3-yl)sulfamoyl]urea]: 500 to 1000 nM and 10000 to 20000 nM.
In the same order, the values of `CC(C)c1sc(Cl)cc1NC(=O)NS(=O)(=O)N(c1cnn(C)c1)C1CCN(C)CC1` [Compound 123, 3-[5-Chloro-2-(propan-2-yl)thiophen-3-yl]-1-[(1-methyl-1H-pyrazol-4-yl)(1-methylpiperidin-4-yl)sulfamoyl]urea] are < 100 nM and 1000 to 3000 nM.
In the same order, the values of `Cc1nsc(C(C)C)c1NC(=O)NS(=O)(=O)N(c1cnn(C)c1)C1CCCN(C)C1` (centres unmarked) [Compound 124, 1-[(1-Methyl-1H-pyrazol-4-yl)(1-methylpiperidin-3-yl)sulfamoyl]-3-[3-methyl-5-(propan-2-yl)-1,2-thiazol-4-yl]urea] are > 10000 nM and > 20000 nM.
As to `Cc1sc2c(c1NC(=O)NS(=O)(=O)N(c1cnn(C)c1)[C@H]1CCN(C)C1)CCC2` [Compound 125, 1-[(1-Methyl-1H-pyrazol-4-yl)[(3S)-1-methylpyrrolidin-3-yl]sulfamoyl]-3-{2-methyl-4H,5H,6H-cyclopenta[b]thiophen-3-yl}urea], the IC50 in assay [1] is < 100 nM; in assay [2], < 1000 nM.
In the same order, the values of `Cc1sc2c(c1NC(=O)NS(=O)(=O)N(c1cnn(C)c1)[C@@H]1CCN(C)C1)CCC2` [Compound 126, 1-[(1-Methyl-1H-pyrazol-4-yl)[(3R)-1-methylpyrrolidin-3-yl]sulfamoyl]-3-{2-methyl-4H,5H,6H-cyclopenta[b]thiophen-3-yl}urea] are < 100 nM and < 1000 nM.
On to `Cc1cc(NC(=O)NS(=O)(=O)N(c2cnn(C)c2)[C@H]2CCN(C)C2)c(C(C)C)s1` [Compound 127, 1-[(1-Methyl-1H-pyrazol-4-yl)[(3S)-1-methylpyrrolidin-3-yl]sulfamoyl]-3-[5-methyl-2-(propan-2-yl)thiophen-3-yl]urea], for which the values for the IC50 in assay [1] and in assay [2] were < 100 nM and < 1000 nM, respectively.
In the same order, the values of `CC(C)c1sc(Cl)cc1NC(=O)NS(=O)(=O)N(c1cnn(C)c1)[C@H]1CCN(C)C1` [Compound 128, 3-[5-Chloro-2-(propan-2-yl)thiophen-3-yl]-1-[(1-methyl-1H-pyrazol-4-yl)-[(3S)-1-methylpyrrolidin-3-yl]sulfamoyl]urea] are < 100 nM and < 1000 nM.
`CC(C)c1sc(Cl)cc1NC(=O)NS(=O)(=O)N(c1cnn(C)c1)[C@@H]1CCN(C)C1` [Compound 129, 3-[5-Chloro-2-(propan-2-yl)thiophen-3-yl]-1-[(1-methyl-1H-pyrazol-4-yl)-[(3R)-1-methylpyrrolidin-3-yl]sulfamoyl]urea]: the values for the half-maximal inhibitory concentration (IC50) in assay [1] and in assay [2] were < 100 nM and < 1000 nM, respectively.
The matching figures for `Cc1cc(NC(=O)NS(=O)(=O)N(c2cnn(C)c2)[C@@H]2CCN(C)C2)c(C(C)C)s1` [Compound 130, 1-[(1-Methyl-1H-pyrazol-4-yl)[(3R)-1-methylpyrrolidin-3-yl]sulfamoyl]-3-[5-methyl-2-(propan-2-yl)thiophen-3-yl]urea]: < 100 nM and < 1000 nM.
In the same order, the values of `CC(C)c1sc(C#N)cc1NC(=O)NS(=O)(=O)N(c1cnn(C)c1)C1CCCN(C)C1` (centres unmarked) [Compound 131, 3-[5-Cyano-2-(propan-2-yl)thiophen-3-yl]-1-[(1-methyl-1H-pyrazol-4-yl)(1-methylpiperidin-3-yl)sulfamoyl]urea] are 500 to 1000 nM and 3000 to 10000 nM.

The values are drawn from US12624023B2, “Sulfonylurea derivatives and uses thereof” (NodThera Limited, priority 2019, dated 2026).
